From patent US20190055576A1, “USE OF HERBICIDE-TOLERANT PROTEIN” (BEIJING DABEINONG TECHNOLOGY GROUP CO., LTD., priority 2016, published 2019)

Legend:
[1] = tested on: transgenic Arabidopsis thaliana T1 plants (ALT-1-01, ALT-2-01, ALT-3-01; cytoplasmic or chloroplastic); assay: Herbicide tolerance of transgenic Arabidopsis thaliana T1 plants expressing thifensulfuron hydrolase, resistance classes counted after spraying; assay type: in vivo; details: for Highly resistant (number of plants with growth status consistent with blank solvent group) / Moderately resistant (number of plants with bolting height less than 1/2 of blank solvent group) / Non-resistant (number of plants dead) / Poorly resistant (number of plants still not capable of bolting): 1-fold field concentration (g ai/ha: Sulfometuron-methyl 30, iodosulfuron-methyl 10, mesosulfuron 14, oxasulfuron 60), 14 days after spraying; for ability of the transformed plants to degrade the herbicide: all the transformed Arabidopsis thaliana T1 plants (ALT-1, ALT-2 and ALT-3), 1-fold field concentration
From the text: (§1) T1 transformants were initially selected from the background of untransformed seeds using a glufosinate selection scheme. About 40000 T1 seeds were screened, and 380 T1 positive transformants (PAT gene) were identified with a transformation efficiency of about 0.95%. The plants that were transformed with the recombinant expression vector DBN100632 were Arabidopsis thaliana plants having an ALT-1-01 nucleotide sequence located in the cytoplasm introduced (At cytoplasmic ALT-1-01), and the plants that were transformed with the recombinant expression vector DBN100631 were Arabidopsis thaliana plants having an ALT-1-01 nucleotide sequence located in the chloroplast introduced (At chloroplastic ALT-1-01); the plants that were transformed with the recombinant expression vector DBN100634 were Arabidopsis thaliana plants having an ALT-2-01 nucleotide sequence located in the cytoplasm introduced (At cytoplasmic ALT-2-01), and the plants that were transformed with the recombinant expression vector DBN100633 were Arabidopsis thaliana plants having an ALT-2-01 nucleotide sequence located in the chloroplast introduced (At chloroplastic ALT-2-01); and the plants that were transformed with the recombinant expression vector DBN100636 were Arabidopsis thaliana plants having an ALT-3-01 nucleotide sequence located in the cytoplasm introduced (At cytoplasmic ALT-3-01), and the plants that were transformed with the recombinant expression vector DBN100635 were Arabidopsis thaliana plants having an ALT-3-01 nucleotide sequence located in the chloroplast introduced (At chloroplastic ALT-3-01). The herbicide tolerance effects of At cytoplasmic ALT-1-01 T1 plants, At chloroplastic ALT-1-01 T1 plants, At cytoplasmic ALT-2-01 T1 plants, At chloroplastic ALT-2-01 T1 plants, At cytoplasmic ALT-3-01 T1 plants, At chloroplastic ALT-3-01 T1 plants and wild-type Arabidopsis thaliana plants on Sulfometuron-methyl were detected (14 days after sowing), respectively.
(§2) At cytoplasmic ALT-1-01 T1 plants, At chloroplastic ALT-1-01 T1 plants, At cytoplasmic ALT-2-01 T1 plants, At chloroplastic ALT-2-01 T1 plants, At cytoplasmic ALT-3-01 T1 plants, At chloroplastic ALT-3-01 T1 plants and wild-type Arabidopsis thaliana plants were sprayed with Sulfometuron-methyl (30 g ai/ha, 1-fold field concentration) and a blank solvent (water), respectively. Plants were counted for the resistance situations 14 days after spraying: those having a consistent growth status with the blank solvent (water) group after 14 days were classified as highly resistant plants, those having a bolting height less than ½ of that of the blank solvent (water) group after 14 days were classified as moderately resistant plants, those still not capable of bolting after 14 days were classified as poorly resistant plants, and those dead after 14 days were classified as non-resistant plants. Since each Arabidopsis thaliana T1 plant was an independent transformation event, a significant difference in individual T1 responses could be expected at a given dose.
(§3) At cytoplasmic ALT-1-01 T1 plants, At chloroplastic ALT-1-01 T1 plants, At cytoplasmic ALT-2-01 T1 plants, At chloroplastic ALT-2-01 T1 plants, At cytoplasmic ALT-3-01 T1 plants, At chloroplastic ALT-3-01 T1 plants and wild-type Arabidopsis thaliana plants in Example 4 were sprayed with iodosulfuron-methyl (10 g ai/ha, 1-fold field concentration), mesosulfuron (14 g ai/ha, 1-fold field concentration) and oxasulfuron (60 g ai/ha, 1-fold field concentration), respectively, in addition to Sulfometuron-methyl (30 g ai/ha, 1-fold field concentration) and the blank solvent (water). […]

[2] = tested on: wild-type Arabidopsis thaliana plants; assay: Herbicide tolerance of wild-type Arabidopsis thaliana plants, resistance classes counted after spraying; assay type: in vivo; details: 1-fold field concentration (g ai/ha: Sulfometuron-methyl 30, iodosulfuron-methyl 10, mesosulfuron 14, oxasulfuron 60), 14 days after spraying
From the text: as §1, §2, §3

[3] = At chloroplastic ALT-1-01 T1 plants
[4] = At chloroplastic ALT-2-01 T1 plants
[5] = At chloroplastic ALT-3-01 T1 plants
[6] = At cytoplasmic ALT-1-01 T1 plants
[7] = At cytoplasmic ALT-2-01 T1 plants
[8] = At cytoplasmic ALT-3-01 T1 plants

| Compound | Highly resistant (number of plants with growth status consistent with blank solvent group) [1, 3] | Moderately resistant (number of plants with bolting height less than 1/2 of blank solvent group) [1, 3] | Non-resistant (number of plants dead) [1, 3] | Poorly resistant (number of plants still not capable of bolting) [1, 3] | Highly resistant (number of plants with growth status consistent with blank solvent group) [1, 4] | Moderately resistant (number of plants with bolting height less than 1/2 of blank solvent group) [1, 4] | Non-resistant (number of plants dead) [1, 4] | Poorly resistant (number of plants still not capable of bolting) [1, 4] | Highly resistant (number of plants with growth status consistent with blank solvent group) [1, 5] | Moderately resistant (number of plants with bolting height less than 1/2 of blank solvent group) [1, 5] | Non-resistant (number of plants dead) [1, 5] | Poorly resistant (number of plants still not capable of bolting) [1, 5] | Highly resistant (number of plants with growth status consistent with blank solvent group) [1, 6] | Moderately resistant (number of plants with bolting height less than 1/2 of blank solvent group) [1, 6] | Non-resistant (number of plants dead) [1, 6] | Poorly resistant (number of plants still not capable of bolting) [1, 6] | Highly resistant (number of plants with growth status consistent with blank solvent group) [1, 7] | Moderately resistant (number of plants with bolting height less than 1/2 of blank solvent group) [1, 7] | Non-resistant (number of plants dead) [1, 7] | Poorly resistant (number of plants still not capable of bolting) [1, 7] | also measured |
| --- | --- | --- | --- | --- | --- | --- | --- | --- | --- | --- | --- | --- | --- | --- | --- | --- | --- | --- | --- | --- | --- |
| COC(=O)c1ccc(I)cc1S(=O)(=O)NC(=O)Nc1nc(C)nc(OC)n1 [iodosulfuron-methyl] | 0 | 0 | 30 | 0 | 0 | 0 | 31 | 0 | 0 | 0 | 32 | 0 | 0 | 0 | 29 | 0 | 0 | 0 | 30 | 0 | Highly resistant (number of plants with growth status consistent with blank solvent group) [1, 8]: 0; Moderately resistant (number of plants with bolting height less than 1/2 of blank solvent group) [1, 8]: 0; Non-resistant (number of plants dead) [1, 8]: 30; Poorly resistant (number of plants still not capable of bolting) [1, 8]: 0; ability of the transformed plants to degrade the herbicide [1]: did not exhibit the ability to degrade; Highly resistant (number of plants with growth status consistent with blank solvent group) [2]: 0; Moderately resistant (number of plants with bolting height less than 1/2 of blank solvent group) [2]: 0; Non-resistant (number of plants dead) [2]: 29; Poorly resistant (number of plants still not capable of bolting) [2]: 0 |
| COc1cc(OC)nc(NC(=O)NS(=O)(=O)c2cc(CNS(C)(=O)=O)ccc2C(=O)O)n1 [mesosulfuron] | 0 | 0 | 32 | 0 | 0 | 0 | 30 | 0 | 0 | 0 | 32 | 0 | 0 | 0 | 29 | 0 | 0 | 0 | 32 | 0 | Highly resistant (number of plants with growth status consistent with blank solvent group) [1, 8]: 0; Moderately resistant (number of plants with bolting height less than 1/2 of blank solvent group) [1, 8]: 0; Non-resistant (number of plants dead) [1, 8]: 30; Poorly resistant (number of plants still not capable of bolting) [1, 8]: 0; ability of the transformed plants to degrade the herbicide [1]: did not exhibit the ability to degrade; Highly resistant (number of plants with growth status consistent with blank solvent group) [2]: 0; Moderately resistant (number of plants with bolting height less than 1/2 of blank solvent group) [2]: 0; Non-resistant (number of plants dead) [2]: 28; Poorly resistant (number of plants still not capable of bolting) [2]: 0 |
| Cc1cc(C)nc(NC(=O)NS(=O)(=O)c2ccccc2C(=O)OC2COC2)n1 [oxasulfuron] | 0 | 0 | 30 | 0 | 0 | 0 | 30 | 0 | 0 | 0 | 31 | 0 | 0 | 0 | 28 | 0 | 0 | 0 | 30 | 0 | Highly resistant (number of plants with growth status consistent with blank solvent group) [1, 8]: 0; Moderately resistant (number of plants with bolting height less than 1/2 of blank solvent group) [1, 8]: 0; Non-resistant (number of plants dead) [1, 8]: 30; Poorly resistant (number of plants still not capable of bolting) [1, 8]: 0; ability of the transformed plants to degrade the herbicide [1]: did not exhibit the ability to degrade; Highly resistant (number of plants with growth status consistent with blank solvent group) [2]: 0; Moderately resistant (number of plants with bolting height less than 1/2 of blank solvent group) [2]: 0; Non-resistant (number of plants dead) [2]: 28; Poorly resistant (number of plants still not capable of bolting) [2]: 0 |
